ChEMBL document CHEMBL5678818, “Discovery of potent SOS1 inhibitors that block RAS activation via disruption of the RAS-SOS1 interaction” (Proc Natl Acad Sci U S A, 2019)

Experiments:
[1] = molecular target: T1, Serine/threonine-protein kinase RIO3 (Homo sapiens) (UniProt O14730); assay: Inhibition of RIOK3 (unknown origin) assessed as residual activity at 100 nM by KINOMEscan analysis relative to control
T1 sequence (whole entry): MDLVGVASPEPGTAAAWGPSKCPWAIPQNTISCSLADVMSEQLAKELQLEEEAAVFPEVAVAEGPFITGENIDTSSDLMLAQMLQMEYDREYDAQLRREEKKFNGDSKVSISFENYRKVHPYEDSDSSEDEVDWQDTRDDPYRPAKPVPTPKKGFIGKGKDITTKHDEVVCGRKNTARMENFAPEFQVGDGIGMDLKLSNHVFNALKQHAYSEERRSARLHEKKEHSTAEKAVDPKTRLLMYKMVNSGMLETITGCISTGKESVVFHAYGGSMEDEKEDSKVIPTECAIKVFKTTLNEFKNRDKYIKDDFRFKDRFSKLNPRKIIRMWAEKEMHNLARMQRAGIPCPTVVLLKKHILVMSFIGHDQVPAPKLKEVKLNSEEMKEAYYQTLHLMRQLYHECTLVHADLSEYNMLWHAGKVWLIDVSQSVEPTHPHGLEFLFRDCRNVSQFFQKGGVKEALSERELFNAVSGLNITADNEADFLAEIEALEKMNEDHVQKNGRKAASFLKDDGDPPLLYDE

[2] = molecular target: LIM domain kinase 1 (Homo sapiens) (UniProt P53667); assay: Inhibition of LIMK1 (unknown origin) assessed as residual activity at 100 nM by KINOMEscan analysis relative to control
[3] = molecular target: T2, Uncharacterized serine/threonine-protein kinase SBK3 (Homo sapiens) (UniProt P0C264); assay: Inhibition of SgK110 (unknown origin) assessed as residual activity at 100 nM by KINOMEscan analysis relative to control
T2 sequence (whole entry): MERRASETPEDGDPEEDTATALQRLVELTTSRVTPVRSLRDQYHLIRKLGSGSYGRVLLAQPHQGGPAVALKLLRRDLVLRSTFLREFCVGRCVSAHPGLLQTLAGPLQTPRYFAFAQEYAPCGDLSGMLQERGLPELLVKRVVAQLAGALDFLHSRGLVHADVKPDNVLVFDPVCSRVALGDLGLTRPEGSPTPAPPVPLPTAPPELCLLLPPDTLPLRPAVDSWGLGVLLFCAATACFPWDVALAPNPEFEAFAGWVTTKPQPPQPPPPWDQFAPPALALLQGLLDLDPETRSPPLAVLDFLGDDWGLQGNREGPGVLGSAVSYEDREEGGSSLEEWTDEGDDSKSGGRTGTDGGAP

[4] = molecular target: T3, Phosphatidylinositol 5-phosphate 4-kinase type-2 beta (Homo sapiens) (UniProt P78356); assay: Inhibition of PIP5K2B (unknown origin) assessed as residual activity at 100 nM by KINOMEscan analysis relative to control
T3 sequence (whole entry): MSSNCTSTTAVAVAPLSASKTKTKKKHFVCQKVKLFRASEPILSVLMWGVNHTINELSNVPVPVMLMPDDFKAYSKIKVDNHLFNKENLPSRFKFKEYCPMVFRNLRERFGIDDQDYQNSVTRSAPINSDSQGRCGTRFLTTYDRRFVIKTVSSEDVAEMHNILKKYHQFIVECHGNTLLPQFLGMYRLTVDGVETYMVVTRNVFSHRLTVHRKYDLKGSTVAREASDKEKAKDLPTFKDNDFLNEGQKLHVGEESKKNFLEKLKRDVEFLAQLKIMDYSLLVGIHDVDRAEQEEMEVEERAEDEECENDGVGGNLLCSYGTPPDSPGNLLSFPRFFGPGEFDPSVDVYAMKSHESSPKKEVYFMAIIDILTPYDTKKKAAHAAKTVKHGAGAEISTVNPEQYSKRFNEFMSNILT

[5] = molecular target: LIM domain kinase 2 (Homo sapiens) (UniProt P53671); assay: Inhibition of LIMK2 (unknown origin) assessed as residual activity at 100 nM by KINOMEscan analysis relative to control
[6] = molecular target: T4, Mitogen-activated protein kinase kinase kinase kinase 3 (Homo sapiens) (UniProt Q8IVH8); assay: Inhibition of MAP4K3 (unknown origin) assessed as residual activity at 100 nM by KINOMEscan analysis relative to control
T4 sequence (whole entry): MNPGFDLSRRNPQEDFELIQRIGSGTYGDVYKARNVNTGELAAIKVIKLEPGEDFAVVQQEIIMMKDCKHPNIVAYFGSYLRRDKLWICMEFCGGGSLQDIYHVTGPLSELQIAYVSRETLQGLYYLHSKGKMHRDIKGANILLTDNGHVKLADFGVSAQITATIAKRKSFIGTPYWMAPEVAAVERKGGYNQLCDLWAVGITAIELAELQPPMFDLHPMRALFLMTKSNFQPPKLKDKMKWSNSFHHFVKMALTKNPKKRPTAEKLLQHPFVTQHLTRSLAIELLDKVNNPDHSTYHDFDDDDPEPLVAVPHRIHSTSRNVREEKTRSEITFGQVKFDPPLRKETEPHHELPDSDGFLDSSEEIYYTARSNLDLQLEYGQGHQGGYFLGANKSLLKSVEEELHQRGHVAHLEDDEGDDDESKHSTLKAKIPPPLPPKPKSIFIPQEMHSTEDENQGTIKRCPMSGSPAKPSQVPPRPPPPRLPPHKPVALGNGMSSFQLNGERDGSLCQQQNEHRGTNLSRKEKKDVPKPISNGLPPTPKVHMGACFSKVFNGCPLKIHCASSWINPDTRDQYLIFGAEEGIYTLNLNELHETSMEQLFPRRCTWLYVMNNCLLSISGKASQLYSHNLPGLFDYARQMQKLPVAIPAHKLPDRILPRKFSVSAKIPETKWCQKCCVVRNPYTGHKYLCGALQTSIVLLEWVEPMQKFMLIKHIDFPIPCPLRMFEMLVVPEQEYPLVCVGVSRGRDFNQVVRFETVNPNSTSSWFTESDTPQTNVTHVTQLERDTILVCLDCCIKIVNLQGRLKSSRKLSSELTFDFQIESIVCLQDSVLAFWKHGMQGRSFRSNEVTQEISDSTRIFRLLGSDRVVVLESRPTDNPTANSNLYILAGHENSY

LIM domain kinase 1 (Homo sapiens), sequence (P53667 whole entry, looked up, the tested form may be a part): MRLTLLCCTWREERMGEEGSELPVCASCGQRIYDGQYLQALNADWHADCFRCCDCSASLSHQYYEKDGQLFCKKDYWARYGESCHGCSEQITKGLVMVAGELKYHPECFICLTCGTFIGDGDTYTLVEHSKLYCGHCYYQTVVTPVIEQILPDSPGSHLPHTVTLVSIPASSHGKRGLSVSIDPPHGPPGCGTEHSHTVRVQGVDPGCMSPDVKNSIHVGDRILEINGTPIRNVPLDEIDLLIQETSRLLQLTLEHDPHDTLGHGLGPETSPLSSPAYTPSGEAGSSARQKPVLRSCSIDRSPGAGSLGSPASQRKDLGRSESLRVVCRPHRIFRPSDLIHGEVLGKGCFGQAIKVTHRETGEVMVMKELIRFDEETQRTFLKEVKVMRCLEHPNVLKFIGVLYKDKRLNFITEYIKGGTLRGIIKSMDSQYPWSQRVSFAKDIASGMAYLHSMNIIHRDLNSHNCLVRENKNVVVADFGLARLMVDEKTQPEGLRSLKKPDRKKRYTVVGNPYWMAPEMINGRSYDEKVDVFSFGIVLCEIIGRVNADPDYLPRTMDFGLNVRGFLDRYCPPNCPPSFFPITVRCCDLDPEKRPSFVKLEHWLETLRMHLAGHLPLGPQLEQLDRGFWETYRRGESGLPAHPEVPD
LIM domain kinase 2 (Homo sapiens), sequence (P53671 whole entry, looked up, the tested form may be a part): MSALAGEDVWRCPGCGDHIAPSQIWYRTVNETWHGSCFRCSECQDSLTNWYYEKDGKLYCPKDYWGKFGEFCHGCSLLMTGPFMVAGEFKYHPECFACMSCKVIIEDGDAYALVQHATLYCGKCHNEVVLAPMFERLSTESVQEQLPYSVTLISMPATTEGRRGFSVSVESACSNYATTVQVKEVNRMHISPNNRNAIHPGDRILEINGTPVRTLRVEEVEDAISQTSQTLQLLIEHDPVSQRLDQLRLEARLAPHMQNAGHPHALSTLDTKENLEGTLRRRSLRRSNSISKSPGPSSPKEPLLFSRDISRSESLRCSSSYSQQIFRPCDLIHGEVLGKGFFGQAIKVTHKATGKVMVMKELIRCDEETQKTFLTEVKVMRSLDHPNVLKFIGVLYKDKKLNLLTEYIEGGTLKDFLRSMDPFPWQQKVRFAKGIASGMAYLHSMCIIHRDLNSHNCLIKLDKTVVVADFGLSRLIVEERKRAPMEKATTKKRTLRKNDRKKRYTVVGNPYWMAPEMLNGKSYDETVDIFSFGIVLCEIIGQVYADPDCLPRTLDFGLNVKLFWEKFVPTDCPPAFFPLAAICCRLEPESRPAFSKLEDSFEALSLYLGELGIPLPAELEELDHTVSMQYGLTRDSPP

Question: Which Activity [1] does the source give for `COc1cc2ncnc(N[C@H](C)c3cccc4ccccc34)c2cc1OC` here?
Answer: 75%

Question: And the Activity [2]?
Answer: 81%

Question: What about the Activity [3] of the same molecule?
Answer: 100%

Question: And the Activity [4]?
Answer: 91%

Question: What about the Activity [5] of the same molecule?
Answer: 28%

Question: What about the Activity [6] of the same molecule?
Answer: 85%
